We go through two molecules from ChEMBL document CHEMBL1148696, “Synthesis, characterization, cytotoxicity, antibacterial and antifungal evaluation of some new platinum (IV) and palladium (II) complexes of thiodiamines” (2007).

In assay [1] the test system is Aspergillus fumigatus. In words: Antifungal activity against Aspergillus fumigatus after 48 hrs by micro-broth dilution method. The assay is classed as functional.
The subject of assay [2] is Aspergillus fumigatus. In words: Antifungal activity against Aspergillus fumigatus after 10 hrs by spore germination inhibition assay. The format is functional.
Assay [3] concerns Aspergillus flavus. In words: Antifungal activity against Aspergillus flavus after 48 hrs by micro-broth dilution method. The format is functional.
The subject of assay [4] is Aspergillus flavus. Put plainly: Antifungal activity against Aspergillus flavus after 10 hrs by spore germination inhibition assay. The format is functional.
In assay [5] the test system is Aspergillus niger. In words: Antifungal activity against Aspergillus niger after 48 hrs by micro-broth dilution method. The format is functional.
Assay [6] relates to Aspergillus niger. Put plainly: Antifungal activity against Aspergillus niger after 10 hrs by spore germination inhibition assay. The assay is classed as functional.
Assay [7] deals with Escherichia coli. Put plainly: Antibacterial activity against Escherichia coli after 18 hrs by disk diffusion method. The format is functional, organism-based.
Assay [8] concerns Escherichia coli. In words: Antibacterial activity against Escherichia coli by micro dilution method. The format is functional, organism-based.

Converted amounts (≈) assume the structure as drawn.

For the molecule `C[C@@H]1[C@H](O)[C@@H](C)/C=C/C=C/C=C/C=C/C=C/C=C/C=C/[C@H](O[C@@H]2O[C@H](C)[C@@H](O)[C@H](N)[C@@H]2O)C[C@@H]2O[C@](O)(C[C@@H](O)C[C@@H](O)[C@H](O)CC[C@@H](O)C[C@@H](O)CC(=O)O[C@H]1C)C[C@H](O)[C@H]2C(=O)O` [AMPHOTERICIN B], the MIC in assay [1], in assay [2], in assay [3], in assay [4], in assay [5] and in assay [6] was 5 µg/mL (≈ 5.41 µM) each time.

As to GENTAMICIN, the inhibition zone (IZ) in assay [7] turned out to be 16 mm. Also, the MIC in assay [8] was determined as 1 µg.
